The text below walks through data of patent US20230167132A1, “FORMS AND COMPOSITIONS OF INHIBITORS OF PLASMA KALLIKREIN” (Takeda Pharmaceutical Company Limited, priority 2020, published 2023).

Where “and” joins values, the source holds several entries; their conditions need not be identical. Equal entries are not always repeated. Entries after “also recorded” stand apart in the source; their conditions may differ. Where two headings read alike, the source gives them in different places.

Data set [1] is described as follows: Competitive slurry / thermodynamic stability of solid forms. Format: physicochemical. The settings on record: competitive slurries at 5 and 50° C. in selected solvents, XRPD. As for the experimental part:
To these, 40 vol (1 mL) selected solvents was added and the material slurried at 5° C. or 50° C. for 72 hours on a HEL polyblock (500 rpm stirring). Solids were subsequently isolated by filtration and dried under suction prior to analysis by XRPD. In all but one experiment, Form 1 was the sole detectable phase by XRPD obtained after 72 hours.
These were mixed, and then aliquots (20 mg) of this mixture were dispensed into HPLC vials and 90 vol (1.8 mL) selected solvents added. Samples were slurried using a Polar Bear with 500 rpm magnetic stirring at 5 and 50° C. After 24 hours, aliquots were removed and analysed by XRPD. Experiment numbers: 01-10.
120 mg of both Compound 6 Pattern 1 and Compound 6 Pattern 4 were dispensed into a 20 mL vial. These were mixed, and then aliquots (20 mg) of this mixture was dispensed into HPLC vials and 90 vol selected solvents were added. Samples were slurried using a Polar Bear with 500 rpm magnetic stirring. Aliquots were removed after four days and analyzed by XRPD.

A short description of data set [2]: Intrinsic Dissolution Rate (IDR), Sirius inForm. Format: physicochemical. The settings on record: for IDR Sector 1 average (pH 2.0) / IDR Sector 1 pH 2.0: pH 2.0, 37° C.; for IDR Sector 1 pH 2.0: individual runs; for XRPD Analysis Post Dissolution: solid form of disc after IDR analysis; for sector 1 IDR compared to free base form Compound 1 Form 1 / other forms: pH 2.0, comparison in words. As to the method: About 40 mg of the sample was compressed in a 6 mm disc recess, under 100 kg for 2 minutes, with greaseproof paper on the compression base, to form nondisintegrating discs. The discs were then plugged with a bung so that only one surface was exposed to the media during analysis and transferred to the Sirius inForm dissolution apparatus. Analysis was performed at 37° C. in 40 mL media (36 mL ISA water, 4 mL 0.1 M Acetate Phosphate Buffer). Dissolution data were collected over 4 pH sectors (pH 2.0, 5.5, 6.5, and 7.4) for a total of 2 hours—30 minutes per sector, with UV spectra collected every 30 seconds. A stir speed of 225 rpm was used with a 10 mm path length probe. The IDR was calculated based on the surface area of the 3/6/8 mm disc recess used (28.3 mm2 surface area). XRPD analysis was performed on all samples, both after compression of the material into the disc recess, and post dissolution analysis to observe any change in form. XRPD diffractograms were collected on the Bruker C2.

A short description of data set [3]: Storage for one week at 40° C./75% RH and 25° C./97% RH, XRPD. Format: physicochemical.
A short description of data set [4]: Gravimetric vapour sorption (GVS) analysis. In kind it is physicochemical. The settings on record: for XRPD post GVS analysis: change of solid form after GVS; for GVS hygroscopicity: classification in words.
The nature of data set [5]: Solubility of Compound 1 in various solvents. In kind it is physicochemical. As for the experimental part: Solubility of >10 mg/mL was only observed in DMSO, NMP and MeOH:DCM 1:3 at 50° C.
The next data set deals with plasma kallikrein (Homo sapiens, UniProt P03952). The settings on record: in vitro kallikrein kinase assay, reported in the '129 publication; cited from earlier work.
Chain of plasma kallikrein (P03952 20-638, species assumed): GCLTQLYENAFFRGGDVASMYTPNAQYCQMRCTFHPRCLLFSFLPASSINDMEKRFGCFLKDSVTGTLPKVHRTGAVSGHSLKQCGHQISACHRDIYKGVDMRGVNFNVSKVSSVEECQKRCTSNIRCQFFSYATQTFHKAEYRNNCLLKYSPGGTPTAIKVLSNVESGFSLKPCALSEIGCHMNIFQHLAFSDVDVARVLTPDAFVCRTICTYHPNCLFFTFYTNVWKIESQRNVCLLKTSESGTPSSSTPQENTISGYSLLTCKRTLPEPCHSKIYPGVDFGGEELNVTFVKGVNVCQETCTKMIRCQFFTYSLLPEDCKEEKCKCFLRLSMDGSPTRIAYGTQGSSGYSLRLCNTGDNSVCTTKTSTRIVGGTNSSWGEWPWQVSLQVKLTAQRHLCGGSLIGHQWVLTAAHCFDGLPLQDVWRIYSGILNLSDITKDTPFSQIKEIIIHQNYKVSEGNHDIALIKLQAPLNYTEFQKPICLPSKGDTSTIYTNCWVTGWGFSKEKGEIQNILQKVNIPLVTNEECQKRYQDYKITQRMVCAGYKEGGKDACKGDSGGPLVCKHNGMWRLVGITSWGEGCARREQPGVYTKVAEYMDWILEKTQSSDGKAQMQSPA
[6] abbreviates: one week (7 days), scaled-up / characterised material.
The mark [7] stands for this setting: one week, material isolated from salt/cocrystal screening experiments.

For the compound `O=C(NCc1ncn2ccc(Cl)c(F)c12)c1cn(Cc2cn3cc(C4CC4)ccc3n2)nn1` [Compound 1 Form 1, N-((7-chloro-8-fluoroimidazo[1,5-a]pyridin-1-yl)methyl)-1-((6-cyclopropylimidazo[1,2-a]pyridin-2-yl)methyl)-1H-1,2,3-triazole-4-carboxamide], in data set [1], the “thermodynamic stability relative to other solid forms” value was “more thermodynamically stable than Compound 1 Form 3”. In data set [1] (listed as Form 1), the “thermodynamic stability relative to other solid forms” value was “more thermodynamically stable than Form 2; also recorded: more thermodynamically stable polymorph; also recorded: polymorph most stable to typical storage and process conditions”. Also, in data set [2], the “IDR Sector 1 average (pH 2.0)” value stood at 104.8 μg/min/cm^2; the “IDR Sector 1 pH 2.0” value is 104.3 μg/min/cm^2 and 105.2 μg/min/cm^2; the “XRPD Analysis Post Dissolution” value is on record as “No change”. Moreover, in data set [3] (setting [6]), the “Storage 25° C./97% RH, XRPD” value is reported as “Compound 1 Form 1” and the “Storage 40° C./75% RH, XRPD” value was “Compound 1 Form 1”. Also, in data set [4] (RH range not given), the “GVS increase in mass” value came to 0.5%. Further, in data set [4], the “XRPD post GVS analysis” value is recorded as “Material unchanged by XRPD post GVS” and the GVS hygroscopicity entry is given as “slightly hygroscopic”.

In the case of `O=C(NCc1ncn2ccc(Cl)c(F)c12)c1cn(Cc2cn3cc(C4CC4)ccc3n2)nn1` [Compound 1, N-((7-chloro-8-fluoroimidazo[1,5-a]pyridin-1-yl)methyl)-1-((6-cyclopropylimidazo[1,2-a]pyridin-2-yl)methyl)-1H-1,2,3-triazole-4-carboxamide], the solubility (in general, how much of the substance goes into solution per volume) in data set [5] (25 °C, organic solvent or mixture, all solvents assessed, Compound 1 as synthesized in Example 1, read-out: solubility at 25° C.) is under 10000 µg/mL; in data set [5] (Acetone, 50 °C, organic solvent or mixture, read-out: Solubility at 50° C.), under 10000 µg/mL; in data set [5] (Acetone:H2O 9:1, 50 °C, organic solvent or mixture, read-out: Solubility at 50° C.) it was under 10000 µg/mL; in data set [5] (Acetonitrile, 50 °C, organic solvent or mixture, read-out: Solubility at 50° C.), under 10000 µg/mL; in data set [5] (Acetonitrile:H2O 1:1, 50 °C, aqueous with cosolvent or surfactant or cyclodextrin, read-out: Solubility at 50° C.), under 10000 µg/mL; in data set [5] (DCM, 50 °C, organic solvent or mixture, read-out: Solubility at 50° C.) it was under 10000 µg/mL. Also, the solubility in data set [5] (DMAC, 50 °C, organic solvent or mixture, read-out: Solubility at 50° C.) was under 10000 µg/mL; in data set [5] (DMF, 50 °C, organic solvent or mixture, read-out: Solubility at 50° C.) it was under 10000 µg/mL; in data set [5] (DMSO, 50 °C, organic solvent or mixture, read-out: Solubility at 50° C.) it was over 10000 µg/mL; in data set [5] (Ethanol, 50 °C, organic solvent or mixture, read-out: Solubility at 50° C.), under 10000 µg/mL; in data set [5] (Ethyl acetate, 50 °C, organic solvent or mixture, read-out: Solubility at 50° C.), under 10000 µg/mL; in data set [5] (IPA, 50 °C, organic solvent or mixture, read-out: Solubility at 50° C.) it was under 10000 µg/mL. Moreover, the solubility is under 10000 µg/mL in data set [5] (IPAC, 50 °C, organic solvent or mixture, read-out: Solubility at 50° C.); under 10000 µg/mL in data set [5] (MEK, 50 °C, organic solvent or mixture, read-out: Solubility at 50° C.); under 10000 µg/mL in data set [5] (MIBK, 50 °C, organic solvent or mixture, read-out: Solubility at 50° C.); under 10000 µg/mL in data set [5] (MeOH:Chlorobenzene (1:1), 50 °C, organic solvent or mixture, read-out: Solubility at 50° C.); over 10000 µg/mL in data set [5] (MeOH:DCM 1:3, 50 °C, organic solvent or mixture, read-out: Solubility at 50° C.); under 10000 µg/mL in data set [5] (MeOH:H2O 9:1, 50 °C, organic solvent or mixture, read-out: Solubility at 50° C.). Further, the solubility is under 10000 µg/mL in data set [5] (MeOH:Toluene (1:1), 50 °C, organic solvent or mixture, read-out: Solubility at 50° C.); under 10000 µg/mL in data set [5] (MeOH:anisole (1:1), 50 °C, organic solvent or mixture, read-out: Solubility at 50° C.); under 10000 µg/mL in data set [5] (Methanol, 50 °C, organic solvent or mixture, read-out: Solubility at 50° C.); over 10000 µg/mL in data set [5] (NMP, 50 °C, organic solvent or mixture, read-out: Solubility at 50° C.); under 10000 µg/mL in data set [5] (TBME, 50 °C, organic solvent or mixture, read-out: Solubility at 50° C.); under 10000 µg/mL in data set [5] (THF, 50 °C, organic solvent or mixture, read-out: Solubility at 50° C.). The solubility in data set [5] (THF:H2O 9:1, 50 °C, organic solvent or mixture, read-out: Solubility at 50° C.) is under 10000 µg/mL; in data set [5] (Toluene, 50 °C, organic solvent or mixture, read-out: Solubility at 50° C.), under 10000 µg/mL; in data set [5] (n-heptane, 50 °C, organic solvent or mixture, read-out: Solubility at 50° C.), under 10000 µg/mL; in data set [5] (t-BuOH, 50 °C, organic solvent or mixture, read-out: Solubility at 50° C.) it was under 10000 µg/mL; in data set [5] (t-BuOH:H2O 1:1, 50 °C, aqueous with cosolvent or surfactant or cyclodextrin, read-out: Solubility at 50° C.) it was under 10000 µg/mL. The “Solubility at 50° C.” value in data set [5] (DMSO), in data set [5] (MeOH:DCM 1:3) and in data set [5] (NMP) was over 10000 µg/mL in each case. Moreover, the EC50 (as a rule, the concentration at which the effect is half-maximal) at plasma kallikrein is under 1 nM.

In the case of `O=C(NCc1ncn2ccc(Cl)c(F)c12)c1cn(Cc2cn3cc(C4CC4)ccc3n2)nn1.O=C(O)C(=O)O` [Compound 6 Pattern 1], the “thermodynamic stability relative to other solid forms” value in data set [1] (listed as Oxalate Pattern 1) is “Less thermodynamically stable”. Also, in data set [2], the “IDR Sector 1 average (pH 2.0)” value was 866.8 μg/min/cm^2 and the “sector 1 IDR compared to free base form Compound 1 Form 1 / other forms” value is “increased sector 1 IDR”. In addition, in data set [2] (listed as Oxalate Pattern 1), the “IDR Sector 1 average (pH 2.0)” value is recorded as 866.8 μg/min/cm^2; the “IDR Sector 1 pH 2.0” value is 895.9 μg/min/cm^2 and 837.7 μg/min/cm^2; the “XRPD Analysis Post Dissolution” value is “Partial conversion to Compound 1”. Moreover, in data set [3] (setting [6]), the “Storage 25° C./97% RH, XRPD” value is listed as “unchanged by XRPD” and the “Storage 40° C./75% RH, XRPD” value is reported as “unchanged by XRPD”. The “Storage 40° C./75% RH, XRPD” value in data set [3] (setting [7]) is given as “slightly changed”. The same compound showed a GVS mass increase in data set [4] (between 0 and 90% RH) of 0.6%. In data set [4], the “XRPD post GVS analysis” value is on record as “no observed change” and the GVS hygroscopicity entry was “slightly hygroscopic”.

Consider `O=C(NCc1ncn2ccc(Cl)c(F)c12)c1cn(Cc2cn3cc(C4CC4)ccc3n2)nn1.O=C(O)C(=O)O` [Compound 6 Pattern 4], for which the “thermodynamic stability relative to other solid forms” value in data set [1] is recorded as “more thermodynamically stable of the two solvent-free oxalate salts; also recorded: more thermodynamically stable than Compound 6 Pattern 1”. The “thermodynamic stability relative to other solid forms” value in data set [1] (listed as Oxalate Pattern 4) is listed as “More thermodynamically stable”. Besides, in data set [2] (listed as Oxalate Pattern 4), the “IDR Sector 1 average (pH 2.0)” value worked out at 674.7 μg/min/cm^2; the “IDR Sector 1 pH 2.0” value was 692.8 μg/min/cm^2 and 656.6 μg/min/cm^2; the “XRPD Analysis Post Dissolution” value is listed as “Partial conversion to Compound 1”. Further, the “sector 1 IDR compared to free base form Compound 1 Form 1 / other forms” value in data set [2] was “increased sector 1 IDR”. In addition, in data set [3] (setting [6]), the “Storage 25° C./97% RH, XRPD” value was “unchanged by XRPD” and the “Storage 40° C./75% RH, XRPD” value is recorded as “unchanged by XRPD”. Moreover, in data set [4] (between 0 and 90% RH), the GVS mass loss amounted to 0.66%. In data set [4], the “XRPD post GVS analysis” value is on record as “unchanged” and the GVS hygroscopicity result is listed as “slightly hygroscopic”.

As for `O=C(NCc1ncn2ccc(Cl)c(F)c12)c1cn(Cc2cn3cc(C4CC4)ccc3n2)nn1.O=C(O)/C=C/C(=O)O` [Compound 9], the “IDR Sector 1 average (pH 2.0)” value in data set [2] stood at 78.3 μg/min/cm^2. Further, in data set [2] (listed as Fumarate Pattern 1), the “IDR Sector 1 pH 2.0” value is 76.8 μg/min/cm^2 and 79.8 μg/min/cm^2. Moreover, the entries for the “XRPD Analysis Post Dissolution” value in data set [2] (listed as Compound 9 Pattern 1) and in data set [2] (listed as Fumarate Pattern 1) were “Additional peaks observed in XRPD” and “Additional peaks observed”, respectively. Moreover, in data set [3] (setting [6]), the “Storage 25° C./97% RH, XRPD” value is listed as “unchanged by XRPD”. Besides, the “Storage 40° C./75% RH, XRPD” value in data set [3] (setting [6]) is reported as “unchanged by XRPD”; in data set [3] (setting [7]), “unchanged”. Besides, in data set [3] (summary of scaled-up solid forms, conditions not restated), the stability under storage entry is reported as “stable under storage”. This compound gave a GVS mass increase in data set [4] (between 0 and 90% RH) of 0.6%. In addition, in data set [4], the “XRPD post GVS analysis” value is reported as “no observed change”. Also, the GVS hygroscopicity entry in data set [4] (listed as Compound 9 Pattern 1) is “slightly hygroscopic”; in data set [4] (listed as fumarate), “reduced hygroscopicity”.
